The values below come from US6380243B1, “Aminopyridine-containing thiourea inhibitors of herpes viruses” (American Home Products Corporation, priority 1998, dated 2002).

For one assay, the system named is HCMV wild-type. The assay can be described thus: HCMV yield assay. In kind it is cell-based, human cytomegalovirus. The note with it: human foreskin fibroblasts, reduction of virus yield by 50%; for IC50: Human betaherpesvirus 5, Fibroblast, read-out: IC50 (ug/ml) HCMV. As to the method: Yield assay. Monolayer cultures of human foreskin fibroblasts are infected with HCMV wild-type, typically at a multiplicity of infection equal to 0.2, in the presence of inhibitor compound (varying concentrations). At three days post-infection, total virus produced in these cultures (i.e. virus yield) is assessed by harvesting and titering the virus in 12-well plates of cultured human foreskin fibroblasts (done in the absence of inhibitor). Plaques are quantified at 2 weeks post-infection. An inhibitor of HCMV is identified by the reduction in titer of virus yield in the presence, compared to the titer in the absence of compound. In this assay, the relative anti-HCMV activity of an inhibitor is typically determined by calculating the IC50 or IC90 value, that is, the amount of compound required to reduce the virus yield by 50% or 90%, respectively. Table I describes IC50 data for compounds tested against HCMV.

The next assay has as its system HSV-1. As to the kind of experiment: HSV Antiviral (ELISA) Assay. In kind it is cell-based, herpes simplex virus type 1. The note with it: HSV-1, about 24 hours post-infection; for IC50: Human alphaherpesvirus 1, Vero cells, read-out: IC50 (ug/ml) HSV. As to the method:
Vero cells (ATCC #CCL-81) are plated on 96-well tissue culture plates at 3.5×10^4 cells per 100 μl tissue culture DMEM (Dulbecco's modified Eagle media) supplemented with 2% fetal bovine serum (FBS) in each well. After overnight incubation @37° C. (in 5% CO2) and 30 minutes prior to infection with HSV-1 (multiplicity of infection equal to 0.006), cells are either untreated, or treated with test compound (multiple concentrations) or reference standard drug control. After approximately 24 hours post-infection incubation @37° C. (in 5% CO2), cells are fixed for ELISA assay. The primary antibody is murine anti-HSV glycoprotein D monoclonal primary antibody and the secondary antibody is goat anti-mouse IgG linked to β-galactosidase. Thus the extent of viral replication is determined by assessing β-galactosidase activity by quantifying the generation of the 4-methyl umbelliferone fluorescent cleavage product after addition of the methyl umbelliferyl-β-D-galactoside (Sigma #M1633) substrate on a microfluorimeter (365 nm for excitation and 450 nm for emission). Antiviral activity (IC50) of the test compound is determined by comparing the flourescence obtained in absence of compound to that obtained in the presence of compound.
In general terms: ELISA stands for enzyme-linked immunosorbent assay.

For a further assay, the system named is VZV strain Ellen. As to the kind of experiment: VZV Antiviral (ELISA) Assay. In kind it is cell-based, varicella-zoster virus. Conditions: for IC50 / inhibition at 10 µg/mL: Human alphaherpesvirus 3, 72 h; for IC50: read-out: IC50 (ug/ml) VZV; for inhibition at 10 µg/mL: read-out: % inhibition 10 ug/ml VZV, 10 ug/ml, human foreskin fibroblast cells, three days. As to the method:
For the generation of stock VZV to be used in the assay, VZV strain Ellen (ATCC #VR-1367) is used to infect human foreskin fibroblast (HFF) cells at low multiplicity (less than 0.1) and incubated overnight at 37° C. in 5% CO2. After the overnight incubation, the mixture of uninfected and VZV-infected HFF infected cells are then harvested and added to each well of 96-well plates (3.5×10^4 cells in 100 1μl DMEM supplemented with 2% FBS) which contain test compound or the reference standard drug control (in 100 μl DMEM supplemented with 2% FBS per well). These cells are incubated for three days at 37° C. in 5% CO2, then fixed for ELISA assay. The primary antibody is murine anti-VZV glycoprotein II monoclonal antibody (Applied Biosystems, Inc. #13-145-100) and the secondary antibody is goat anti-mouse IgG linked to β-galactosidase. Thus the extent of viral replication is determined by assessing β-galactosidase activity by quantifying the generation of the 4-methyl umbelliferone fluorescent cleavage product after addition of the methyl umbelliferyl-β-D-galactoside (Sigma #M1633) substrate on a microfluorimeter (365 nm for excitation 450 nm for emission). Antiviral activity (IC50) of the test compound is determined by comparing the flourescence obtained in absence of compound to that obtained the presence of compound.

Where [1] appears, read: human foreskin fibroblast cells, three days.

Values after ≈ are worked out from the molar mass of the structure shown.

In the case of `CC(NC(=S)Nc1ccc(NC(=O)c2ccccc2F)cc1)c1ccncc1` (stereo not drawn) [Example 803, 2-Fluoro-N-{4-[3-(1-pyridin-4-yl-ethyl)-thioureido]-phenyl}-benzamide], the IC50 is over 10 µg/mL in the assay with HCMV wild-type, over 10 µg/mL in the assay with HSV-1 and over 7.5 µg/mL in the assay with VZV strain Ellen (setting [1]).
For the compound `CC(C)(C)n1ccnc1NC(=S)Nc1ccc(NC(=O)c2csnn2)cc1` [Example 608, [1,2,3]Thiadiazole-4-carboxylic acid {4-[3-(1-tert-butyl-1H-imidazol-2-yl)-thioureido]-phenyl}-amide], the IC50 is over 0.5 µg/mL in the assay with HCMV wild-type, 9 µg/mL (≈ 22.4 µM) in the assay on HSV-1 and over 10 µg/mL in the assay with VZV strain Ellen (setting [1]).
As to `O=C(Nc1ccc(NC(=S)Nc2cncc(Br)c2)cc1)c1csnn1` [Example 525, [1,2,3]Thiadiazole-4-carboxylic acid {4-[3-(5-bromo-pyridin-3-yl)-thioureido]-phenyl}-amide], the IC50 with HCMV wild-type was 0.018 µg/mL (≈ 0.0413 µM); with HSV-1, 2.5 µg/mL (≈ 5.74 µM); in the assay with VZV strain Ellen (setting [1]), over 10 µg/mL. For the same compound, the inhibition at 10 µg/mL in the assay on VZV strain Ellen turned out to be 39%.
On to `CC(NC(=S)Nc1ccc(NC(=O)c2ccccc2F)cc1)c1nccc2ccccc12` (stereo not drawn) [Example 1098, 2-Fluoro-N-{4-[3-(1-isoquinolin-1-yl-ethyl)-thioureido]-phenyl}-benzamide], for which the IC50 was determined as 3.5 µg/mL (≈ 7.87 µM) in the assay on HCMV wild-type, 9 µg/mL (≈ 20.2 µM) in the assay on HSV-1 and 3.8 µg/mL (≈ 8.55 µM) with VZV strain Ellen (setting [1]).
Taken in the same sequence, the figures for `O=C(Nc1ccc(NC(=S)NCc2cccnc2)cc1)c1ccccc1F` [Example 632, 2-Fluoro-N-[4-(3-pyridin-3-ylmethyl-thioureido)-phenyl]-benzamide] were over 10 µg/mL, over 10 µg/mL and over 10 µg/mL.
Turning to `O=C(Nc1ccc(NC(=S)Nc2ccncc2)cc1)c1ccccc1F` [Example 444, 2-Fluoro-N-[4-(3-pyridin-4-yl-thioureido)-phenyl]-benzamide], the IC50 is 4 µg/mL (≈ 10.9 µM) in the assay with HCMV wild-type, 8 µg/mL (≈ 21.8 µM) in the assay on HSV-1 and over 10 µg/mL in the assay on VZV strain Ellen (setting [1]). Besides, the inhibition at 10 µg/mL in the assay on VZV strain Ellen came to 0%.
With “[1,2,3]Thiadiazole-4-carboxylic acid {4-[3-(5-chloro-pyridin-3-yl)-thioureido]-phenyl}-amide [Example 520]”, the “IC50 (ug/ml) HCMV” value with HCMV wild-type stood at 0.32 µg/mL. The “IC50 (ug/ml) HSV” value in the assay on HSV-1 (Vero cells) came out at 12 µg/mL. In addition, the “% inhibition 10 ug/ml VZV” value with VZV strain Ellen (10 ug/ml, human foreskin fibroblast cells, three days) is reported as 38%. In the assay on VZV strain Ellen (setting [1]), the “IC50 (ug/ml) VZV” value is over 10 µg/mL.
As for `O=C(Nc1ccc(NC(=S)Nc2cncc(C(F)(F)F)c2)cc1)c1csnn1` [Example 629, [1,2,3]Thiadiazole-4-carboxylic acid {4-[3-(5-trifluoromethyl-pyridin-3-yl)-thioureido]-phenyl}-amide], the IC50 in the assay on HCMV wild-type is 0.5 µg/mL (≈ 1.18 µM); in the assay with HSV-1 it was over 10 µg/mL; in the assay with VZV strain Ellen (setting [1]), over 10 µg/mL.
As for `O=C(Nc1ccc(NC(=S)NCc2ccncc2)cc1)c1csnn1` [Example 660, [1,2,3]Thiadiazole-4-carboxylic acid [4-(3-pyridin-4-ylmethyl-thioureido)-phenyl]-amide], the IC50 in the assay on HCMV wild-type was over 0.5 µg/mL; in the assay on HSV-1 it was 10 µg/mL (≈ 27 µM).
As for `O=C(Nc1ccc(NC(=S)Nc2cccnc2)cc1)c1ccco1` [Example 429, Furan-2-carboxylic acid [4-(3-pyridin-3-yl-thioureido)-phenyl]-amide], the IC50 in the assay with HCMV wild-type was 1 µg/mL (≈ 2.96 µM); in the assay on HSV-1, over 10 µg/mL; in the assay with VZV strain Ellen (setting [1]), over 10 µg/mL. Also, the inhibition at 10 µg/mL in the assay on VZV strain Ellen came out at 0%.
As to `O=C(Nc1ccc(NC(=S)NCc2cccnc2)cc1)c1ccco1` [Example 633, Furan-2-carboxylic acid [4-(3-pyridin-3-ylmethyl-thioureido)-phenyl]-amide], the figures for the IC50 with HCMV wild-type, with HSV-1 and with VZV strain Ellen (setting [1]) were 0.34 µg/mL (≈ 0.965 µM), over 10 µg/mL and over 10 µg/mL, respectively.
On to `CC(NC(=S)Nc1ccc(NC(=O)c2ccccc2F)cc1)c1ccc2ncccc2c1` (stereo not drawn) [Example 1099, 2-Fluoro-N-{4-[3-(1-quinolin-6-yl-ethyl)-thioureido]-phenyl}-benzamide], for which the IC50 in the assay with HCMV wild-type was 5.6 µg/mL (≈ 12.6 µM); in the assay with HSV-1 it was over 10 µg/mL; in the assay on VZV strain Ellen (setting [1]) it was over 7.5 µg/mL.
Take `CC(C)(C)n1ccnc1NC(=S)Nc1ccc(NC(=O)c2ccco2)cc1` [Example 609, Furan-2-carboxylic acid {4-[3-(1-tert-butyl-1H-imidazol-2-yl)-thioureido]-phenyl}-amide]: the IC50 in the assay with HCMV wild-type was 1.5 µg/mL (≈ 3.91 µM); with HSV-1, 8 µg/mL (≈ 20.9 µM); in the assay with VZV strain Ellen (setting [1]) it was over 10 µg/mL.
In the case of `O=C(Nc1ccc(NC(=S)NCc2ccncc2)cc1)c1ccccc1F` [Example 658, 2-Fluoro-N-[4-(3-pyridin-4-ylmethyl-thioureido)-phenyl]-benzamide], the IC50 in the assay on HCMV wild-type was over 0.5 µg/mL; with HSV-1 it was 10 µg/mL (≈ 26.3 µM).
On to `CC(C)(C)n1ccnc1NC(=S)Nc1ccc(NC(=O)c2ccccc2F)cc1` [Example 593, N-{4-[3-(1-tert-Butyl-1H-imidazol-2-yl)-thioureido]-phenyl}-2-fluoro-benzamide], for which the values for the IC50 in the assay on HCMV wild-type, with HSV-1 and with VZV strain Ellen (setting [1]) were over 0.5 µg/mL, 10 µg/mL (≈ 24.3 µM) and over 10 µg/mL, respectively.
Take `CC(NC(=S)Nc1ccc(NC(=O)c2ccccc2F)cc1)c1ccnc2ccccc12` (stereo not drawn) [Example 1096, 2-Fluoro-N-{4-[3-(1-quinolin-4-yl-ethyl)-thioureido]-phenyl}-benzamide]: the IC50 is 5.7 µg/mL (≈ 12.8 µM) in the assay with HCMV wild-type, over 10 µg/mL in the assay on HSV-1 and 6.7 µg/mL (≈ 15.1 µM) in the assay on VZV strain Ellen (setting [1]).
With `O=C(Nc1ccc(NC(=S)NCc2ccncc2)cc1)c1ccco1` [Example 659, Furan-2-carboxylic acid [4-(3-pyridin-4-ylmethyl-thioureido)-phenyl]-amide], the results for the IC50 with HCMV wild-type and with HSV-1 were over 0.5 µg/mL and over 10 µg/mL, respectively.
As to `O=C(Nc1ccc(NC(=S)Nc2cccnc2)cc1)c1ccccc1F` [Example 428, 2-Fluoro-N-[4-(3-pyridin-3-yl-thioureido)-phenyl]-benzamide], the IC50 in the assay with HCMV wild-type, in the assay on HSV-1 and in the assay with VZV strain Ellen (setting [1]) was over 10 µg/mL each time. In addition, the inhibition at 10 µg/mL in the assay with VZV strain Ellen was 0%.
With `O=C(Nc1ccc(NC(=S)Nc2ccncn2)cc1)c1ccco1` [Example 480, Furan-2-carboxylic acid [4-(3-pyrimidin-4-yl-thioureido)-phenyl]-amide], the IC50 with HCMV wild-type is 7 µg/mL (≈ 20.6 µM); with HSV-1, over 10 µg/mL; in the assay on VZV strain Ellen (setting [1]), over 10 µg/mL. In the assay on VZV strain Ellen, the inhibition at 10 µg/mL is 42%.
As for `O=C(Nc1ccc(NC(=S)NC2CCc3ccccc32)cc1)c1csnn1` (stereo not drawn) [Example 649, [1,2,3]Thiadiazole-4-carboxylic acid [4-(3-indan-1-yl-thioureido)-phenyl]-amide], the IC50 is 0.02 µg/mL (≈ 0.0506 µM) in the assay on HCMV wild-type, over 10 µg/mL in the assay on HSV-1 and 0.5 µg/mL (≈ 1.26 µM) with VZV strain Ellen (setting [1]).
As for `CC(NC(=S)Nc1ccc(NC(=O)c2ccccc2F)cc1)c1ccco1` (stereo not drawn) [Example 802, 2-Fluoro-N-{4-[3-(1-furan-2-yl-ethyl)-thioureido]-phenyl}-benzamide], the IC50 with HCMV wild-type was over 10 µg/mL; in the assay on HSV-1 it was over 10 µg/mL; in the assay with VZV strain Ellen (setting [1]), 7.3 µg/mL (≈ 19 µM).
On to `CC(NC(=S)Nc1ccc(NC(=O)c2ccccc2F)cc1)c1cnc2ccccc2c1` (stereo not drawn) [Example 1100, 2-Fluoro-N-{4-[3-(1-quinolin-3-yl-ethyl)-thioureido]-phenyl}-benzamide], for which the results for the IC50 in the assay on HCMV wild-type, in the assay with HSV-1 and in the assay on VZV strain Ellen (setting [1]) were 4.6 µg/mL (≈ 10.3 µM), over 10 µg/mL and 7.3 µg/mL (≈ 16.4 µM), respectively.
Taken in the same sequence, the figures for `CC(NC(=S)Nc1ccc(NC(=O)c2ccccc2F)cc1)c1ccsc1` (stereo not drawn) [Example 805, 2-Fluoro-N-{4-[3-(1-thiophen-3-yl-ethyl)-thioureido]-phenyl}-benzamide] were 8 µg/mL (≈ 20 µM), over 10 µg/mL and 1.6 µg/mL (≈ 4 µM).
